≈ marks a conversion by molar mass, not a printed value.
Experiments:
[1] = system: H9 (acute lymphoblastic leukemia, ALL); test: MTT growth inhibition of leukemia cells, 72 h; format: cell-based, human; details: Homo sapiens, H9, 72 h; for IC50: read-out: IC50; for IC90: read-out: IC90
Text: (§1) Leukemia cell lines: leukemia cell lines: K562/adr (drug-resistant, chronic myeloid leukemia, CML), NB4 (acute promyelocytic leukemia, AML), Kasumi-1 (acute myeloid leukemia M2 type, AML-M2), and Jurkat (acute lymphoblastic leukemia, ALL), all of which are donated by Cancer Research Institute of Zhejiang University, China; and H9 (acute lymphoblastic leukemia, ALL), which is purchased from China Center for Type Culture Collection (CCTCC).
(§2) The standard sample of tanshinone I (TA) and the 2-aminated methylene or 2-esterified methylene tanshinone I derivatives of the present invention are sufficiently dissolved with dimethylsulfoxide to produce a stock solution of 10 mg/mL, which is refrigerated at 4° C. and stored in dark, and is diluted with a cell culture medium to the desired concentration prior to experimentation.
(§3) Obtaining 6000 well-growing leukemia cells and inoculating them into wells of a 96-well cell culture plate. The culture medium is the RPMI-1640 cell culture medium containing 10% fetal bovine serum. After adding on the second day the 2-aminated methylene or 2-esterified methylene tanshinone I derivatives of different concentrations and mixing uniformly, placing the plate in a carbon dioxide cell incubator (5% CO2) at 37° C. and incubated for 72 hours. Then the viable cell concentration is determined by MTT method.

[2] = system: Jurkat (acute lymphoblastic leukemia, ALL); test: MTT growth inhibition of leukemia cells, 72 h; format: cell-based, human; details: Homo sapiens, 72 h; for IC50: read-out: IC50; for IC90: read-out: IC90
Text: as §1, §2, §3

[3] = system: K562/adr (drug-resistant, chronic myeloid leukemia, CML); test: MTT growth inhibition of leukemia cells, 72 h; format: cell-based, human; details: Homo sapiens, K562/Adr; for IC50: read-out: IC50; for IC90: read-out: IC90
Text: as §1, §2, §3

[4] = system: Kasumi-1 (acute myeloid leukemia M2 type, AML-M2); test: MTT growth inhibition of leukemia cells, 72 h; format: cell-based, human; details: Homo sapiens, Kasumi-1, 72 h; for IC50: read-out: IC50; for IC90: read-out: IC90
Text: as §1, §2, §3

[5] = system: NB4 (acute promyelocytic leukemia, AML); test: MTT growth inhibition of leukemia cells, 72 h; format: cell-based, human; details: Homo sapiens, NB4, 72 h; for IC50: read-out: IC50; for IC90: read-out: IC90
Text: as §1, §2, §3

[6] = system: RPMI8226 (multiple myeloma); test: MTT growth inhibition of multiple myeloma cells, 72 h; format: cell-based, human; details: Homo sapiens, RPMI 8226, 72 h; for IC50: read-out: IC50; for IC90: read-out: IC90
Experimental: Myeloma cell lines: RPMI8226 (multiple myeloma), purchased from Fuxiang Bio-tech Co. Ltd., Shanghai, China.
as §2
as §3, with “myeloma” for “leukemia”, “cells as above” for “cells”, “1640” for “RPMI-1640”, “adding” for “adding on the second day”

[7] = system: A549 (human lung cancer); test: MTT growth inhibition of human solid tumor cells, 72 h; format: cell-based; details: Homo sapiens, A549, 72 h; for IC50: read-out: IC50; for IC90: read-out: IC90
Experimental: (§4) Hep-2 (laryngeal carcinoma), A549 (human lung cancer), CaES-17 (esophageal cancer cell), PC-3 (prostate cancer), CNE (nasopharyngeal carcinoma cell), and SK-OV-3 (ovarian cancer cell), all of which are purchased from China Center For Type Culture Collection; RKO (human colon adenocarcinoma cell), MGC 803 (human gastric cancer cell), MG63 (osteosarcoma) and U87 MG (malignant glioma cell), all of which are purchased from Fuxiang Bio-tech Co. Ltd., Shanghai, China; PANC-1 (pancreatic cancer), Hep G2 (human liver cancer cell), Becap37 (human breast cancer cell) and Hela (human cervical cancer cell), all of which are donated by Cancer Research Institute of Zhejiang University, China.
as §2
(§5) Obtaining 4000 well-growing human solid tumor cells and inoculating them into wells of a 96-well cell culture plate. The culture medium is DMEM High Glucose cell culture medium containing 10% fetal bovine serum. The plate is placed in a carbon dioxide cell incubator (5% CO2) at 37° C. and incubated for 24 hours. After adding the 2-aminated methylene or 2-esterified methylene tanshinone I derivatives of different concentrations and mixing uniformly, the plate is placed in a carbon dioxide cell incubator (5% CO2) at 37° C. and incubated for 72 hours. Then the viable cell concentration is determined by the MTT method.

[8] = system: Becap37 (human breast cancer cell); test: as above; format: cell-based; details: Homo sapiens, Becap-37, 72 h; for IC50: read-out: IC50; for IC90: read-out: IC90
Experimental: as §4, §2, §5

[9] = system: CNE (nasopharyngeal carcinoma cell); test: as above; format: cell-based; details: Homo sapiens; for IC50: read-out: IC50; for IC90: read-out: IC90
Experimental: as §4, §2, §5

[10] = system: CaES-17 (esophageal cancer cell); test: as above; format: cell-based; details: Homo sapiens, CaEs17, CaEs-17, 72 h; for IC50: read-out: IC50; for IC90: read-out: IC90
Experimental: as §4, §2, §5

[11] = system: Hela (human cervical cancer cell); test: as above; format: cell-based; details: Homo sapiens, HeLa, 72 h; for IC50: read-out: IC50; for IC90: read-out: IC90
Experimental: as §4, §2, §5

[12] = system: Hep G2 (human liver cancer cell); test: as above; format: cell-based; details: Homo sapiens, HepG2, Hep G2, 72 h; for IC50: read-out: IC50; for IC90: read-out: IC90
Experimental: as §4, §2, §5

[13] = system: Hep-2 (laryngeal carcinoma); test: as above; format: cell-based; details: Homo sapiens, HEp-2, 72 h; for IC50: read-out: IC50; for IC90: read-out: IC90
Experimental: as §4, §2, §5

[14] = system: MG63 (osteosarcoma); test: as above; format: cell-based; details: Homo sapiens, MG-63, 72 h; for IC50: read-out: IC50; for IC90: read-out: IC90
Experimental: as §4, §2, §5

[15] = system: MGC 803 (human gastric cancer cell); test: as above; format: cell-based; details: Homo sapiens, MGC-803, 72 h; for IC50: read-out: IC50; for IC90: read-out: IC90
Experimental: as §4, §2, §5

[16] = system: PANC-1 (pancreatic cancer); test: as above; format: cell-based; details: Homo sapiens, PANC-1, 72 h; for IC50: read-out: IC50; for IC90: read-out: IC90
Experimental: as §4, §2, §5

[17] = system: PC-3 (prostate cancer); test: as above; format: cell-based; details: Homo sapiens, PC-3, 72 h; for IC50: read-out: IC50; for IC90: read-out: IC90
Experimental: as §4, §2, §5

[18] = system: RKO (human colon adenocarcinoma cell); test: as above; format: cell-based; details: Homo sapiens; for IC50: read-out: IC50; for IC90: read-out: IC90
Experimental: as §4, §2, §5

[19] = system: SK-OV-3 (ovarian cancer cell); test: as above; format: cell-based; details: Homo sapiens, SK-OV-3, 72 h; for IC50: read-out: IC50; for IC90: read-out: IC90
Experimental: as §4, §2, §5

[20] = system: U87 MG (malignant glioma cell); test: as above; format: cell-based; details: Homo sapiens, U-87 MG, U87-MG, 72 h; for IC50: read-out: IC50; for IC90: read-out: IC90
Experimental: as §4, §2, §5

| IC50 [1] [µg/mL] | IC90 [1] [µg/mL] | IC50 [2] [µg/mL] | IC90 [2] [µg/mL] | IC50 [3] [µg/mL] | IC90 [3] [µg/mL] | IC50 [4] [µg/mL] | IC90 [4] [µg/mL] | IC50 [5] [µg/mL] | IC90 [5] [µg/mL] | IC50 [6] [µg/mL] | IC90 [6] [µg/mL] | IC50 [7] [µg/mL] | IC90 [7] [µg/mL] | IC50 [8] [µg/mL] | IC90 [8] [µg/mL] | IC50 [9] [µg/mL] | IC90 [9] [µg/mL] | IC50 [10] [µg/mL] | IC90 [10] [µg/mL] | further results | Structure (SMILES) |
| --- | --- | --- | --- | --- | --- | --- | --- | --- | --- | --- | --- | --- | --- | --- | --- | --- | --- | --- | --- | --- | --- |
| 0.57 (≈ 1.41 µM) | 0.9 (≈ 2.22 µM) | 0.56 (≈ 1.38 µM) | 0.99 (≈ 2.44 µM) | 0.61 (≈ 1.5 µM) | 1.61 (≈ 3.97 µM) | 0.31 (≈ 0.765 µM) | 1.28 (≈ 3.16 µM) | 0.73 (≈ 1.8 µM) | 1.9 (≈ 4.69 µM) | 1.82 (≈ 4.49 µM) | 3.92 (≈ 9.67 µM) | 2.76 (≈ 6.81 µM) | 6.41 (≈ 15.8 µM) | 2.54 (≈ 6.26 µM) | 4.92 (≈ 12.1 µM) | 2.8 (≈ 6.91 µM) | 7.2 (≈ 17.8 µM) | 3 (≈ 7.4 µM) | 5.07 (≈ 12.5 µM) | IC50 [11]: 1.49 µg/mL (≈ 3.67 µM); IC90 [11]: 4 µg/mL (≈ 9.87 µM); IC50 [12]: 2.95 µg/mL (≈ 7.28 µM); IC90 [12]: 9.75 µg/mL (≈ 24 µM); IC50 [13]: 0.84 µg/mL (≈ 2.07 µM); IC90 [13]: 2.52 µg/mL (≈ 6.22 µM); IC50 [14]: 2.34 µg/mL (≈ 5.77 µM); IC90 [14]: 6.79 µg/mL (≈ 16.7 µM); IC50 [15]: 2.47 µg/mL (≈ 6.09 µM); IC90 [15]: 8.33 µg/mL (≈ 20.5 µM); IC50 [16]: 0.74 µg/mL (≈ 1.83 µM); IC90 [16]: 4.95 µg/mL (≈ 12.2 µM); IC50 [17]: 2.65 µg/mL (≈ 6.54 µM); IC90 [17]: 6.49 µg/mL (≈ 16 µM); IC50 [18]: 0.46 µg/mL (≈ 1.13 µM); IC90 [18]: 6.98 µg/mL (≈ 17.2 µM); IC50 [19]: 5.83 µg/mL (≈ 14.4 µM); IC90 [19]: 9.47 µg/mL (≈ 23.4 µM); IC50 [20]: 2.59 µg/mL (≈ 6.39 µM); IC90 [20]: 3.87 µg/mL (≈ 9.54 µM) | CC(=O)OCCN(C)Cc1oc2c(c1C)C(=O)C(=O)c1c-2ccc2c(C)cccc12 [BS-TA-61] |
| 6.25 | 15.9 | 4.79 | > 16 | 11.2 | > 16 | 5.03 | > 16 | 0.99 | 7 | 3.86 | 16 | 8.9 | > 16 | 8.1 | > 16 | 3.87 | > 16 | 8.45 | > 16 | IC50 [11]: 7.78 µg/mL; IC90 [11]: > 16 µg/mL; IC50 [12]: > 16 µg/mL; IC90 [12]: > 16 µg/mL; IC50 [13]: 13.7 µg/mL; IC90 [13]: > 16 µg/mL; IC50 [14]: 1.67 µg/mL; IC90 [14]: > 16 µg/mL; IC50 [15]: 8.91 µg/mL; IC90 [15]: > 16 µg/mL; IC50 [16]: 4.24 µg/mL; IC90 [16]: > 16 µg/mL; IC50 [17]: 10.7 µg/mL; IC90 [17]: > 16 µg/mL; IC50 [18]: 2.5 µg/mL; IC90 [18]: > 16 µg/mL; IC50 [19]: > 16 µg/mL; IC90 [19]: > 16 µg/mL; IC50 [20]: 4.67 µg/mL; IC90 [20]: > 16 µg/mL | CC[N+](C)(Cc1ccc(F)c(Cl)c1)Cc1oc2c(c1C)C(=O)C(=O)c1c-2ccc2c(C)cccc12 (stereo not drawn) [BS-TA-50] |
| 0.45 (≈ 0.864 µM) | 1.6 (≈ 3.07 µM) | 0.31 (≈ 0.595 µM) | 0.99 (≈ 1.9 µM) | 1.5 (≈ 2.88 µM) | 2 (≈ 3.84 µM) | 0.28 (≈ 0.538 µM) | 0.47 (≈ 0.903 µM) | 0.35 (≈ 0.672 µM) | 0.71 (≈ 1.36 µM) | 0.12 (≈ 0.231 µM) | 0.87 (≈ 1.67 µM) | 1.07 (≈ 2.06 µM) | 3.7 (≈ 7.11 µM) | 1.02 (≈ 1.96 µM) | 1.94 (≈ 3.73 µM) | 2.02 (≈ 3.88 µM) | 3.61 (≈ 6.93 µM) | 1.84 (≈ 3.53 µM) | 3.98 (≈ 7.65 µM) | IC50 [11]: 0.89 µg/mL (≈ 1.71 µM); IC90 [11]: 1.84 µg/mL (≈ 3.53 µM); IC50 [12]: 0.71 µg/mL (≈ 1.36 µM); IC90 [12]: 3.85 µg/mL (≈ 7.4 µM); IC50 [13]: 1.59 µg/mL (≈ 3.05 µM); IC90 [13]: 3.77 µg/mL (≈ 7.24 µM); IC50 [14]: 1.08 µg/mL (≈ 2.07 µM); IC90 [14]: 2.56 µg/mL (≈ 4.92 µM); IC50 [15]: 1.5 µg/mL (≈ 2.88 µM); IC90 [15]: 9.94 µg/mL (≈ 19.1 µM); IC50 [16]: 0.75 µg/mL (≈ 1.44 µM); IC90 [16]: 8.96 µg/mL (≈ 17.2 µM); IC50 [17]: 1.68 µg/mL (≈ 3.23 µM); IC90 [17]: 9.92 µg/mL (≈ 19.1 µM); IC50 [18]: 0.25 µg/mL (≈ 0.48 µM); IC90 [18]: 2.38 µg/mL (≈ 4.57 µM); IC50 [19]: 5.91 µg/mL (≈ 11.4 µM); IC90 [19]: 10.9 µg/mL (≈ 21 µM); IC50 [20]: 1.46 µg/mL (≈ 2.8 µM); IC90 [20]: 3.65 µg/mL (≈ 7.01 µM) | Cc1c(CN(C)CCOC(=O)CNC(=O)OC(C)(C)C)oc2c1C(=O)C(=O)c1c-2ccc2c(C)cccc12 [BS-TA-72] |
